Reference: US9006450B2 (Boehringer Ingelheim International GmbH, priority 2010, dated 2015)

biological target: T1, human ACC2 (Homo sapiens, UniProt O00763); assay: ACC2 assay, spectrophotometric 384 well assay (NADH-linked, coupled lactate dehydrogenase/pyruvate kinase); format: biochemical; conditions: ACC2 assay, hACC2 construct lacking 128 N-terminal amino acids, 25° C., 340 nm; read-out: IC50
T1 construct: made in house; host or cells: insect cells (baculoviral expression system)
In short: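 Human ACC2 lacking N-terminal 128 aa, baculovirus/insect-cell expressed, anion-exchange purified; 100 mM Tris pH 7.5, 10 mM citrate, 25 mM KHCO3, 1% DMSO. Started with 200 μM NADH and acetyl-CoA plus 500 μM ATP; PK/LDH-coupled A340 decrease read 15 min at 25° C. IC50 by nonlinear fit of low-control-subtracted slopes.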

T1 sequence (O00763 129-2458 limits assumed): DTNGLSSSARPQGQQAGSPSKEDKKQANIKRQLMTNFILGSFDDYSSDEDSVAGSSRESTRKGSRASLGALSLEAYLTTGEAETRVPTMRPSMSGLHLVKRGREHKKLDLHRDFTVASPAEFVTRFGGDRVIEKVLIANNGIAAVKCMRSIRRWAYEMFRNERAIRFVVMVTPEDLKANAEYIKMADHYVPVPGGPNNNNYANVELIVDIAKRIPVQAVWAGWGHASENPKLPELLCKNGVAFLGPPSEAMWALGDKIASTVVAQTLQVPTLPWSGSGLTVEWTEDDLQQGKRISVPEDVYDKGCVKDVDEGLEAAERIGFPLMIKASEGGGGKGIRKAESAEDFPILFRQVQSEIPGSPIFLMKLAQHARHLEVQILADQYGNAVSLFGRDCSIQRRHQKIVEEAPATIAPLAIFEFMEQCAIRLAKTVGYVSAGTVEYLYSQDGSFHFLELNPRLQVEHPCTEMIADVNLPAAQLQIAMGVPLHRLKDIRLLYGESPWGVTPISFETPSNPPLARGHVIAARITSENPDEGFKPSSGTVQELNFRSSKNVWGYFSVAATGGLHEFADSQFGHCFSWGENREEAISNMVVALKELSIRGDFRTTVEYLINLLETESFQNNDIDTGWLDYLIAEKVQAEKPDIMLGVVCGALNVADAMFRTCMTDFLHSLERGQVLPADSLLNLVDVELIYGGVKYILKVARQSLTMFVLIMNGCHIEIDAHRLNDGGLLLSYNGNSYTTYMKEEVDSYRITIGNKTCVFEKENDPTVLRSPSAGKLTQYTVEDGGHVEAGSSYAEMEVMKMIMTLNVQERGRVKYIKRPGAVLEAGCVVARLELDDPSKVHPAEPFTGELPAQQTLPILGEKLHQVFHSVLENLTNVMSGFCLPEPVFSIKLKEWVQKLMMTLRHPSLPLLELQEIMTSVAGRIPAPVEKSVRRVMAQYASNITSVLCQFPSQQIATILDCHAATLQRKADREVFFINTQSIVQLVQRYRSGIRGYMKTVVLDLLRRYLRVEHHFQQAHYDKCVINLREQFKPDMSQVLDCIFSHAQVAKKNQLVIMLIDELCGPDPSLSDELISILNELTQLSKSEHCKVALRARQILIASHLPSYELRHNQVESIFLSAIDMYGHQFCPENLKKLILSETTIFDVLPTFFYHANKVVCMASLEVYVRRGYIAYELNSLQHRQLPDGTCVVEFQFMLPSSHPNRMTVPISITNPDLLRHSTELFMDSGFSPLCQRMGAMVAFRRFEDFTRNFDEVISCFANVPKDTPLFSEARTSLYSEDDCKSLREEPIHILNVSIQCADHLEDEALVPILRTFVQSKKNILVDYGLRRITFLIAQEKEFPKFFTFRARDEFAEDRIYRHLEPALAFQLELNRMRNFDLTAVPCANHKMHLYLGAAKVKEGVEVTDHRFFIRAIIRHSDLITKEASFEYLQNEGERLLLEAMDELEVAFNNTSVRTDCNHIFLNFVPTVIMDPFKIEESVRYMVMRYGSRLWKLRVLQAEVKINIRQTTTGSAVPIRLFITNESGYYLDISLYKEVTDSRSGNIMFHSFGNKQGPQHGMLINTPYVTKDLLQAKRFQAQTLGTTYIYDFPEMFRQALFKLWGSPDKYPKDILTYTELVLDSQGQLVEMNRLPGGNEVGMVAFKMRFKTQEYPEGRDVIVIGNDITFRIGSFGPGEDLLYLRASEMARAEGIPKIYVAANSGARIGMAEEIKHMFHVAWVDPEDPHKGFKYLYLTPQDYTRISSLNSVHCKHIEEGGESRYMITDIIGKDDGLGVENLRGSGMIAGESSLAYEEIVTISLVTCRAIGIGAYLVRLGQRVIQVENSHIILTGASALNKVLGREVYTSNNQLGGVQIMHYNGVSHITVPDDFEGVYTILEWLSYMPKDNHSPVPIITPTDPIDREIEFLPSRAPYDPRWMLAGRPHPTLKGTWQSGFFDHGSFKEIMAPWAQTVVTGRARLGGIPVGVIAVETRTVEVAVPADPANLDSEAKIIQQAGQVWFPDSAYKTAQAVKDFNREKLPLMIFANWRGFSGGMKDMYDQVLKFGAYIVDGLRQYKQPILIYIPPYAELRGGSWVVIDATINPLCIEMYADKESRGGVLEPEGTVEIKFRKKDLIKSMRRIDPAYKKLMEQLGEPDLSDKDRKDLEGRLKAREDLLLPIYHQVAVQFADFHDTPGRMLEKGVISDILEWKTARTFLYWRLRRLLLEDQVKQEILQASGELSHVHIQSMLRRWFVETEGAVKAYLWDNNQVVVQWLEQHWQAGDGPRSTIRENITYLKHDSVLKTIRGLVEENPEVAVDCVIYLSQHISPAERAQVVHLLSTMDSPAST

Compared with `CC(=O)N[C@@H](C)c1ccc(C2CCN(c3ccc(OCC4CC4)c(C)c3)CC2)cc1` [Example 9.38], `CC(=O)N[C@@H](C)c1ccc(C2CCN(c3ccc(OCC4CC4)c(F)c3)CC2)cc1` [Example 9.41] is 1.9-fold lower in IC50: 410 nM for the first, 220 nM for the second.

Compared with `CC(=O)N[C@@H](C)c1ccc(C2CCN(c3ccc(OCC4CC4)c(C#N)c3)CC2)cc1` [Example 9.40], `CC(=O)N[C@@H](C)c1ccc(C2CCN(c3ccc(OCC4CC4)c(Cl)c3)CC2)cc1` [Example 9.46] is 5.2-fold lower in IC50: 2900 nM for the first, 560 nM for the second.

Compared with `CC(=O)N[C@@H](C)c1ccc(C2CCN(c3ccc(OCC4CCC4)c(F)c3)CC2)cc1` [Example 9.42], `CC(=O)N[C@@H](C)c1ccc(C2CCN(c3ccc(OCC4CCC4)c(Cl)c3)CC2)cc1` [Example 9.45] is 2.4-fold higher in IC50: 160 nM for the first, 380 nM for the second. The first is the more potent here.

`COc1cc(N2CCC(c3ccc([C@H](C)NC(C)=O)cc3)CC2)ccc1OCC1CCC1` [Example 9.43] and `COc1cc(N2CCC(c3ccc([C@H](C)NC(C)=O)cc3)CC2)ccc1OCC1CC1` [Example 9.44] are within 1.5-fold of each other in IC50: 430 nM for the first, 480 nM for the second.

`CC(=O)N[C@@H](C)c1ccc(C2CCN(c3ncc(-c4ccc(C#N)c(F)c4)cn3)CC2)cc1` [Example 10.1, (S)—N-[1-(4-{1-[5-(4-Cyano-3-fluorophenyl)-pyrimidin-2-yl]-piperidin-4-yl}-phenyl)ethyl]-acetamide] and `CC(=O)N[C@@H](C)c1ccc(C2CCN(c3ncc(-c4ccc(F)c(C#N)c4)cn3)CC2)cc1` [Example 10.50] are the same in IC50: 50 nM for the first, 50 nM for the second.

First: COc1ccc(-c2cnc(N3CCC(c4ccc([C@H](C)NC(C)=O)cc4)CC3)nc2)cn1 [Example 10.2]
Second: CCOc1ccc(-c2cnc(N3CCC(c4ccc([C@H](C)NC(C)=O)cc4)CC3)nc2)cn1 [Example 10.38]
The IC50 of the first is 15-fold lower: 200 nM for the first, 3000 nM for the second. The first is the more potent here.

Compared with `COc1cccc(-c2cnc(N3CCC(c4ccc([C@H](C)NC(C)=O)cc4)CC3)nc2)c1` [Example 10.3], `CC(=O)N[C@@H](C)c1ccc(C2CCN(c3ncc(-c4cccc(C)c4)cn3)CC2)cc1` [Example 10.7] is 3.2-fold lower in IC50: 130 nM for the first, 40 nM for the second. The second is the more potent here.

Compared with `COc1ccccc1-c1cnc(N2CCC(c3ccc([C@H](C)NC(C)=O)cc3)CC2)nc1` [Example 10.4], `CC(=O)N[C@@H](C)c1ccc(C2CCN(c3ncc(-c4ccccc4C)cn3)CC2)cc1` [Example 10.8] is 10-fold lower in IC50: 2000 nM for the first, 200 nM for the second.

Going from `CCOc1ccc(-c2cnc(N3CCC(c4ccc([C@H](C)NC(C)=O)cc4)CC3)nc2)cc1` [Example 10.5] to `CCc1ccc(-c2cnc(N3CCC(c4ccc([C@H](C)NC(C)=O)cc4)CC3)nc2)cc1` [Example 10.6], the IC50 falls from 540 nM to 100 nM (5.4-fold). The second is the more potent here.

Compared with `CC(=O)N[C@@H](C)c1ccc(C2CCN(c3ncc(-c4ccc(F)cc4)cn3)CC2)cc1` [Example 10.9], `CC(=O)N[C@@H](C)c1ccc(C2CCN(c3ncc(-c4ccc(C)cc4)cn3)CC2)cc1` [Example 10.44] is 5-fold higher in IC50: 20 nM for the first, 100 nM for the second. The first is the more potent here.

First: CC(=O)N[C@@H](C)c1ccc(C2CCN(c3ncc(-c4ccc(C#N)cc4)cn3)CC2)cc1 [Example 10.10]
Second: CC(=O)N[C@@H](C)c1ccc(C2CCN(c3ncc(-c4ccc(CC#N)cc4)cn3)CC2)cc1 [Example 10.18]
The IC50 of the first is 2.6-fold lower: 70 nM for the first, 180 nM for the second.

Going from `CC(=O)N[C@@H](C)c1ccc(C2CCN(c3ncc(-c4ccc(C(C)C)cc4)cn3)CC2)cc1` [Example 10.11] to `CC(=O)N[C@@H](C)c1ccc(C2CCN(c3ncc(-c4ccc(OC(C)C)cc4)cn3)CC2)cc1` [Example 10.27], the IC50 falls from 5800 nM to 970 nM (6-fold). The second is the more potent here.

Going from `CC(=O)N[C@@H](C)c1ccc(C2CCN(c3ncc(-c4cccnc4)cn3)CC2)cc1` [Example 10.12] to `CC(=O)N[C@@H](C)c1ccc(C2CCN(c3ncc(-c4ccncc4)cn3)CC2)cc1` [Example 10.16], the IC50 rises from 360 nM to 710 nM (2-fold). The first is the more potent here.

Compared with `CC(=O)N[C@@H](C)c1ccc(C2CCN(c3ncc(-c4ccccc4F)cn3)CC2)cc1` [Example 10.13], `CC(=O)N[C@@H](C)c1ccc(C2CCN(c3ncc(-c4ccccc4C#N)cn3)CC2)cc1` [Example 10.55] is 7.1-fold higher in IC50: 90 nM for the first, 640 nM for the second. The first is the more potent here.

Compared with `CC(=O)N[C@@H](C)c1ccc(C2CCN(c3ncc(-c4cc5ccccc5o4)cn3)CC2)cc1` [Example 10.14], `CC(=O)N[C@@H](C)c1ccc(C2CCN(c3ncc(-c4ccccc4)cn3)CC2)cc1` [Example 10.43] is 3.3-fold lower in IC50: 100 nM for the first, 30 nM for the second.

Going from `CC(=O)N[C@@H](C)c1ccc(C2CCN(c3ncc(-c4ccc(OC(F)(F)F)cc4)cn3)CC2)cc1` [Example 10.15] to `CC(=O)N[C@@H](C)c1ccc(C2CCN(c3ncc(-c4ccc(C(F)(F)F)cc4)cn3)CC2)cc1` [Example 10.45], the IC50 rises from 550 nM to 1100 nM (2-fold).

Compared with `CC(=O)N[C@@H](C)c1ccc(C2CCN(c3ncc(-c4c(C)noc4C)cn3)CC2)cc1` [Example 10.20], `CC(=O)N[C@@H](C)c1ccc(C2CCN(c3ncc(-c4ccc(C)c(C)c4)cn3)CC2)cc1` [Example 10.47] is 10-fold lower in IC50: 2700 nM for the first, 270 nM for the second.

Going from `CC(=O)N[C@@H](C)c1ccc(C2CCN(c3ncc(-c4cnc5ccccc5c4)cn3)CC2)cc1` [Example 10.21] to `CC(=O)N[C@@H](C)c1ccc(C2CCN(c3ncc(-c4ccc(C)nc4)cn3)CC2)cc1` [Example 10.33], the IC50 rises from 70 nM to 640 nM (9.1-fold). The first is the more potent here.

First: COc1ncc(-c2cnc(N3CCC(c4ccc([C@H](C)NC(C)=O)cc4)CC3)nc2)cn1 [Example 10.22]
Second: COc1cncc(-c2cnc(N3CCC(c4ccc([C@H](C)NC(C)=O)cc4)CC3)nc2)c1 [Example 10.68]
The IC50 of the first is 3.4-fold higher: 1100 nM for the first, 320 nM for the second.

`CC(=O)N[C@@H](C)c1ccc(C2CCN(c3ncc(-c4ccc5c(c4)OCCO5)cn3)CC2)cc1` [Example 10.23] and `CC(=O)N[C@@H](C)c1ccc(C2CCN(c3ncc(-c4ccc5c(c4)OCCCO5)cn3)CC2)cc1` [Example 10.26] are within 1.5-fold of each other in IC50: 290 nM for the first, 410 nM for the second.

First: CC(=O)N[C@@H](C)c1ccc(C2CCN(c3ncc(-c4ccc5c(c4)CCO5)cn3)CC2)cc1 [Example 10.24]
Second: CC(=O)N[C@@H](C)c1ccc(C2CCN(c3ncc(-c4ccc(F)c(C)c4)cn3)CC2)cc1 [Example 10.49]
The IC50 of the first is 3.7-fold lower: 70 nM for the first, 260 nM for the second. The first is the more potent here.

First: CC(=O)N[C@@H](C)c1ccc(C2CCN(c3ncc(-c4ccc5c(ccn5C)c4)cn3)CC2)cc1 [Example 10.25]
Second: CC(=O)N[C@@H](C)c1ccc(C2CCN(c3ncc(-c4ccc5[nH]ccc5c4)cn3)CC2)cc1 [Example 10.46]
The IC50 of the first is 2.3-fold higher: 320 nM for the first, 140 nM for the second.

`COc1cc(-c2cnc(N3CCC(c4ccc([C@H](C)NC(C)=O)cc4)CC3)nc2)ccn1` [Example 10.29] and `COc1ccc(-c2cnc(N3CCC(c4ccc([C@H](C)NC(C)=O)cc4)CC3)nc2)cc1C` [Example 10.30] are the same in IC50: 130 nM for the first, 130 nM for the second.

Compared with `CSc1ccc(-c2cnc(N3CCC(c4ccc([C@H](C)NC(C)=O)cc4)CC3)nc2)cc1` [Example 10.31], `CCSc1ccc(-c2cnc(N3CCC(c4ccc([C@H](C)NC(C)=O)cc4)CC3)nc2)cc1` [Example 10.64] is 39-fold higher in IC50: 180 nM for the first, 7000 nM for the second. The first is the more potent here.

First: COCc1ccc(-c2cnc(N3CCC(c4ccc([C@H](C)NC(C)=O)cc4)CC3)nc2)cc1 [Example 10.32]
Second: CC(=O)N[C@@H](C)c1ccc(C2CCN(c3ncc(-c4ccc(C5CC5)cc4)cn3)CC2)cc1 [Example 10.41]
The IC50 of the first is 4.6-fold lower: 410 nM for the first, 1900 nM for the second. The first is the more potent here.

Compared with `COc1cc(OC)cc(-c2cnc(N3CCC(c4ccc([C@H](C)NC(C)=O)cc4)CC3)nc2)c1` [Example 10.34], `COc1ccc(-c2cnc(N3CCC(c4ccc([C@H](C)NC(C)=O)cc4)CC3)nc2)cc1OC` [Example 10.35] is 5.2-fold higher in IC50: 210 nM for the first, 1100 nM for the second. The first is the more potent here.

`COc1ccc(-c2cnc(N3CCC(c4ccc([C@H](C)NC(C)=O)cc4)CC3)nc2)c(C(F)(F)F)c1` [Example 10.36] and `COc1ccc(-c2cnc(N3CCC(c4ccc([C@H](C)NC(C)=O)cc4)CC3)nc2)c(F)c1` [Example 10.37] are within 1.5-fold of each other in IC50: 210 nM for the first, 190 nM for the second.

Compared with `COc1ccc2cc(-c3cnc(N4CCC(c5ccc([C@H](C)NC(C)=O)cc5)CC4)nc3)ccc2c1` [Example 10.40], `COc1cc(-c2cnc(N3CCC(c4ccc([C@H](C)NC(C)=O)cc4)CC3)nc2)ccc1C` [Example 10.65] is 21-fold lower in IC50: 6900 nM for the first, 330 nM for the second. The second is the more potent here.

First: CC(=O)N[C@@H](C)c1ccc(C2CCN(c3ncc(-c4ccc(C)cc4C)cn3)CC2)cc1 [Example 10.48]
Second: CC(=O)N[C@@H](C)c1ccc(C2CCN(c3ncc(-c4cc(C)ccc4C)cn3)CC2)cc1 [Example 10.54]
The IC50 of the first is 2.9-fold higher: 1200 nM for the first, 420 nM for the second. The second is the more potent here.

Compared with `CC(=O)N[C@@H](C)c1ccc(C2CCN(c3ncc(-c4ccc(OCC5CC5)nc4)cn3)CC2)cc1` [Example 10.51], `CC(=O)N[C@@H](C)c1ccc(C2CCN(c3ncc(-c4ccc(F)c(F)c4)cn3)CC2)cc1` [Example 10.52] is 21-fold lower in IC50: 1500 nM for the first, 70 nM for the second. The second is the more potent here.

Going from `CC(=O)N[C@@H](C)c1ccc(C2CCN(c3ncc(-c4ccc(F)cc4F)cn3)CC2)cc1` [Example 10.53] to `CC(=O)N[C@@H](C)c1ccc(C2CCN(c3ncc(-c4ccc(F)cc4C)cn3)CC2)cc1` [Example 10.60], the IC50 rises from 80 nM to 390 nM (4.9-fold). The first is the more potent here.

Going from `CC(=O)N[C@@H](C)c1ccc(C2CCN(c3ncc(-c4cscc4C)cn3)CC2)cc1` [Example 10.56] to `CC(=O)N[C@@H](C)c1ccc(C2CCN(c3ncc(-c4ccsc4)cn3)CC2)cc1` [Example 10.62], the IC50 falls from 320 nM to 50 nM (6.4-fold).

Compared with `COc1ccc(-c2cnc(N3CCC(c4ccc([C@H](C)NC(C)=O)cc4)CC3)nc2)cc1Cl` [Example 10.57], `CC(=O)N[C@@H](C)c1ccc(C2CCN(c3ncc(-c4ccc(C)c(Cl)c4)cn3)CC2)cc1` [Example 10.67] is 2.7-fold lower in IC50: 240 nM for the first, 90 nM for the second.

Compared with `COc1ncccc1-c1cnc(N2CCC(c3ccc([C@H](C)NC(C)=O)cc3)CC2)nc1` [Example 10.58], `CC(=O)N[C@@H](C)c1ccc(C2CCN(c3ncc(-c4ccc(C)cc4Cl)cn3)CC2)cc1` [Example 10.66] is 4.8-fold lower in IC50: 760 nM for the first, 160 nM for the second. The second is the more potent here.

Going from `CC(=O)N[C@@H](C)c1ccc(C2CCN(c3ncc(-c4ccc(C#N)cc4C)cn3)CC2)cc1` [Example 10.61] to `CC(=O)N[C@@H](C)c1ccc(C2CCN(c3ncc(-c4ccc(C#N)s4)cn3)CC2)cc1` [Example 10.63], the IC50 falls from 530 nM to 30 nM (18-fold).

`CC(=O)N[C@@H](C)c1ccc(C2CCN(c3ncc(-c4cncc(F)c4)cn3)CC2)cc1` [Example 10.69] gave an IC50 of 270 nM.
